Source: patent publication US20240317777A1, “NOVEL MACROCYCLIC AMINOPYRAZOLE COMPOUNDS AS CDK2 INHIBITORS” (Accutar Biotechnology Inc., priority 2023, published 2024)

How the values were obtained:
Assay type in all cases: cell-based
[1] = system: CCNE1-amplified OVCAR3 cells; test: Cell growth inhibition of CCNE1-amplified OVCAR3 cells (CellTiter-Glo); conditions: Homo sapiens, OVCAR-3, 144 h, 6 days
Method: Cell Growth Inhibition of CCNE1-Amplified OVCAR3 Cells
(§1) OVCAR3 cells were seeded in 96-well plates at 2000 cells/well in 90 μl of RPM11640 growth medium containing 10% FBS and 1% Penicillin Streptomycin, and then incubated at 37° C. overnight. The following day, the test compound was administered to the cells by using 1000× compound stock solution prepared in DMSO at various concentrations. 1000× compound stock solution was first diluted in culturing medium to 10x, then 10 uL compound medium was added to each well in the cell plates. After administration of the compound, the cells were then incubated at 37° C. for 6 days. Upon completion, the plates were equilibrated at room temperature for approximately 10 minutes. 100 ul of CellTiter-Glo® Reagent (Promega) was added to each well. The plates were then incubated at room temperature for 10 minutes and luminescence was recorded by EnSpire plate reader (PerkinElmer).

[2] = system: Phospho-Rb (Ser807/811) in OVCAR3 cells; test: Phospho-Rb expression inhibition in OVCAR3 cells quantified by In Cell Western; conditions: Homo sapiens, OVCAR-3, 24 hours, read-out: OVCAR-3 pRb IC50
Method: Phospho-Rb Expression Inhibition in OVCAR3 Cells Quantified by in Cell Western
OVCAR3 cells were obtained from American Type Culture Collection (ATCC, HTB-161). OVCAR3 cells were plated in 96-well plates (VWR #10062-900, or Corning #3904) in 90 uL culture medium at a density of 20,000 cells/well in the RPM11640 growth medium containing 10% FBS and 1% Penicillin Streptomycin, and then incubated at 37° C. overnight. The following day, the test compound was administered to the cells by using 1000× compound stock solution prepared in DMSO at various concentrations. 1000× compound stock solution was first diluted in culturing medium to 10x, then 10 uL compound medium was added to each well in the cell plates. After administration of the compound, the cells were then incubated at 37° C. for 24 hours. Upon completion, the cells were washed with PBS briefly. 150 uL/well of 4% formaldehyde was added and the plates were incubated at room temperature for 20 mins. The cells were washed with PBS briefly, and permeabilized with 150 uL/well of ice cold 100% methanol for 10 mins. The cells were washed with PBS briefly and blocked with 100 uL/well LI-COR blocking buffer for 1 hr at room temperature with gentle shaking. The cells were incubated overnight at 4° C. with 50 uL primary antibody rabbit anti-Phospho-Rb (Ser807/811) (1:500, Cell Signaling, #8516) and anti-Rb (1:200, Santa Cruz, sc-73598) diluted in Intercept Blocking Buffer (LI-COR, #927-60001) containing 0.1% Tween 20. The next day, the cells were washed with 200 uL PBS containing 0.1% Tween 20, 5×5 mins at room temperature with gentle shaking, and incubated with 50 uL secondary antibody, IRDye® 800CW Goat anti-Rabbit IgG (1:1000, LI-COR, #926-32211) and IRDye® 680RD Goat anti-Mouse IgG (1:1000, LI-COR, #926-68070), in LI-COR blocking buffer with 0.2% Tween 20 for 1 hr at room temperature with gentle shaking. The cells were washed with 200 uL PBS containing 0.1% Tween 20, 5×5 mins at room temperature with gentle shaking. The cells were washed with PBS for 5 mins. 100 uL fresh PBS was added to each well and the plates were imaged on a LI-COR Odyssey CLX plate reader.

CCNE1-normal SKOV3 cells = test: Cell growth inhibition of CCNE1-normal SKOV3 cells (CellTiter-Glo); conditions: Homo sapiens, SK-OV-3, 144 h, 6 days
Method: Cell Growth Inhibition of CCNE1-Normal SKOV3 Cells
as §1, with “SKOV3 cells were obtained from American Type Culture Collection (ATCC, HTB-77). SKOV3” for “OVCAR3”, “1000” for “2000”

IC50 [1] [nM]	IC50 [2] [nM]	SMILES	IC50 (CCNE1-normal SKOV3 cells) [nM]
≤ 2	≤ 2	O=C1NC23CC(CCCc4cc(cc(C(F)F)n4)Nc4cc(n[nH]4)[C@H]4CC[C@H](C4)O1)(C2)C3 [Compound 98, (1^1S,1^3R,Z)-4^6-(difluoromethyl)-2^1H-11-oxa-3,9-diaza-4(4,2)-pyridina-2(3,5)-pyrazola-8(1,3)-bicyclo[1.1.1]pentana-1(1,3)-cyclopentanacycloundecaphan-10-one]	10 to 50
2 to 10	≤ 2	C[C@H]1CCC(C)(C)NC(=O)O[C@@H]2CC[C@@H](C2)c2cc([nH]n2)Nc2ccnc(c2)O1 [Compound 113, (1^1S,1^3R,6S,Z)-6,9,9-trimethyl-2^1H-5,12-dioxa-3,10-diaza-4(4,2)-pyridina-2(3,5)-pyrazola-1(1,3)-cyclopentanacyclododecaphan-11-one]	10 to 50
≤ 2	≤ 2	O=C1NC23CC(CCCc4cncc(c4)Nc4cc(n[nH]4)[C@H]4CC[C@H](C4)O1)(C2)C3 [Compound 118, (1^1S,1^3R,Z)-2^1H-11-oxa-3,9-diaza-4(3,5)-pyridina-2(3,5)-pyrazola-8(1,3)-bicyclo[1.1.1]pentana-1(1,3)-cyclopentanacycloundecaphan-10-one]	10 to 50
2 to 10	≤ 2	C[C@H]1CCC(C)(C)NC(=O)O[C@@H]2CC[C@@H](C2)c2cc([nH]n2)Nc2cncc(c2)O1 [Compound 124, (1^1S,1^3R,6S,Z)-6,9,9-trimethyl-2^1H-5,12-dioxa-3,10-diaza-4(3,5)-pyridina-2(3,5)-pyrazola-1(1,3)-cyclopentanacyclododecaphan-11-one]	10 to 50
50 to 250	10 to 50	C[C@@H]1/C=C/COc2cc(ccn2)Nc2cc(n[nH]2)[C@H]2CC[C@H](C2)OC(=O)N1 [Compound 138, (1^1S,1^3R,2^4Z,7E,9R)-9-methyl-2^1H-5,12-dioxa-3,10-diaza-4(4,2)-pyridina-2(3,5)-pyrazola-1(1,3)-cyclopentanacyclododecaphan-7-en-11-one]	> 1250
2 to 10	≤ 2	O=C1NC2CC(CCc3cncc(c3)Nc3cc(n[nH]3)[C@H]3CC[C@H](C3)O1)C2 [Compound 141, (1^1S,1^3R,7^1R,7^3R,Z)-2^1H-10-oxa-3,8-diaza-4(3,5)-pyridina-2(3,5)-pyrazola-1(1,3)-cyclopentana-7(1,3)-cyclobutanacyclodecaphan-9-one]	50 to 250
10 to 50	2 to 10	O=C1NC2(CCCCc3cncc(c3)Nc3cc(n[nH]3)[C@H]3CC[C@H](C3)O1)CC2 [Compound 142, (1′S,3′R,Z)-spiro[cyclopropane-1,9′-12-oxa-3,10-diaza-4(3,5)-pyridina-2(3,5)-pyrazola-1(1,3)-cyclopentanacyclododecaphan]-11′-one]	250 to 1250
50 to 250	50 to 250	C[C@@H]1Oc2cc(ccn2)Nc2cc(n[nH]2)[C@H]2CC[C@H](C2)OC(=O)N[C@H]2C[C@@H]1C2 [Compound 145, (1^1S,1^3R,7^1S,7^3R,6S,Z)-6-methyl-2^1H-5,10-dioxa-3,8-diaza-4(4,2)-pyridina-2(3,5)-pyrazola-1(1,3)-cyclopentana-7(1,3)-cyclobutanacyclodecaphan-9-one]	> 1250
50 to 250	50 to 250	C[C@H]1Oc2cncc(c2)Nc2cc(n[nH]2)[C@H]2CC[C@H](C2)OC(=O)N[C@H]2C[C@@H]1C2 [Compound 147, (1^1S,1^3R,7^1S,7^3S,6R,Z)-6-methyl-2^1H-5,10-dioxa-3,8-diaza-4(3,5)-pyridina-2(3,5)-pyrazola-1(1,3)-cyclopentana-7(1,3)-cyclobutanacyclodecaphan-9-one]	> 1250
10 to 50	2 to 10	C[C@H]1C/C=C\C(F)(F)c2cc(ccn2)Nc2cc(n[nH]2)[C@H]2CC[C@H](C2)OC(=O)N1 [Compound 167, (1^1S,1^3R,2^4Z,9S)-5,5-difluoro-9-methyl-2^1H-12-oxa-3,10-diaza-4(4,2)-pyridina-2(3,5)-pyrazola-1(1,3)-cyclopentanacyclododecaphan-6-en-11-one]	250 to 1250
50 to 250	10 to 50	C[C@@H]1C/C=C\C(F)(F)c2cc(ccn2)Nc2cc(n[nH]2)[C@H]2CC[C@H](C2)OC(=O)N1 [Compound 168, (1^1S,1^3R,2^4Z,9R)-5,5-difluoro-9-methyl-2^1H-12-oxa-3,10-diaza-4(4,2)-pyridina-2(3,5)-pyrazola-1(1,3)-cyclopentanacyclododecaphan-6-en-11-one]	> 1250
2 to 10	≤ 2	O=C1NC2CC(COc3cncc(c3)Nc3cc(n[nH]3)[C@H]3CC[C@H](C3)O1)C2 [Compound 171, (1^1S,1^3R,7^1R,7^3S,Z)-2^1H-5,10-dioxa-3,8-diaza-4(3,5)-pyridina-2(3,5)-pyrazola-1(1,3)-cyclopentana-7(1,3)-cyclobutanacyclodecaphan-9-one]	250 to 1250
50 to 250	50 to 250	C[C@H]1CCCOc2cc(c(F)cn2)Nc2cc(n[nH]2)[C@H]2CC[C@H](C2)OC(=O)N1 [Compound 174, (1^1S,1^3R,9S,Z)-4^5-fluoro-9-methyl-2^1H-5,12-dioxa-3,10-diaza-4(4,2)-pyridina-2(3,5)-pyrazola-1(1,3)-cyclopentanacyclododecaphan-11-one]	> 1250
10 to 50	2 to 10	C[C@H]1CCCOc2nccc(c2F)Nc2cc(n[nH]2)[C@H]2CC[C@H](C2)OC(=O)N1 [Compound 176, (1^1S,1^3R,9S,Z)-4^3-fluoro-9-methyl-2^1H-5,12-dioxa-3,10-diaza-4(4,2)-pyridina-2(3,5)-pyrazola-1(1,3)-cyclopentanacyclododecaphan-11-one]	250 to 1250
50 to 250	10 to 50	[2H]C1([2H])CC[C@H](C)NC(=O)O[C@@H]2CC[C@@H](C2)c2cc([nH]n2)Nc2cc(F)nc(c2)O1 [Compound 179, (1^1S,1^3R,9S,Z)-4^6-fluoro-9-methyl-2^1H-5,12-dioxa-3,10-diaza-4(4,2)-pyridina-2(3,5)-pyrazola-1(1,3)-cyclopentanacyclododecaphan-11-one-6,6-d2]	> 1250
10 to 50	2 to 10	[2H]C1([2H])CC(F)(F)[C@H](C)NC(=O)O[C@@H]2CC[C@@H](C2)c2cc([nH]n2)Nc2ccnc(c2)O1 [Compound 182, (1^1S,1^3R,9S,Z)-8,8-difluoro-9-methyl-2^1H-5,12-dioxa-3,10-diaza-4(4,2)-pyridina-2(3,5)-pyrazola-1(1,3)-cyclopentanacyclododecaphan-11-one-6,6-d2]	250 to 1250
50 to 250	10 to 50	C[C@@H]1NC(=O)O[C@@H]2CC[C@@H](C2)c2n[nH]c(c2F)Nc2ccnc(c2)OCCC1(F)F [Compound 188, (1^1S,1^3R,9S,E)-2^4,8,8-trifluoro-9-methyl-2^1H-5,12-dioxa-3,10-diaza-4(4,2)-pyridina-2(3,5)-pyrazola-1(1,3)-cyclopentanacyclododecaphan-11-one]	> 1250
